#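 Test compounds were applied to cells in 96-well plates for 48 hours at 5 doses. GI50: concentration for 50% inhibition of growth.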 The source made the active and inactive calls. Cut-off read from the data, not from the text of the source: active = GI50 up to about 1.1 µM and inactive = higher.
# Tests used:
# Experiment in all cases: inhibition of tumour cell growth, NCI panel, 48 h
# SNB-75 = system: SNB-75
# CCRF-CEM = system: CCRF-CEM
# UO-31 = system: UO-31
# PC-3 = system: PC-3
# MDA-MB-231 = system: MDA-MB-231
# LOX IMVI = system: LOX IMVI
# OVCAR-8 = system: OVCAR-8
# NCI-H23 = system: NCI-H23
# NCI-H460 = system: NCI-H460
# BT-549 = system: BT-549
# RPMI-8226 = system: RPMI-8226
# SR = system: SR
# SK-OV-3 = system: SK-OV-3
# MDA-MB-435 = system: MDA-MB-435
# EKVX = system: EKVX
# MCF7 = system: MCF7
# SNB-19 = system: SNB-19
# IGROV-1 = system: IGROV-1
# T47D = system: T47D
# SK-MEL-28 = system: SK-MEL-28
Structure (SMILES),GI50 (SNB-75),GI50 (CCRF-CEM),GI50 (UO-31),GI50 (PC-3),GI50 (MDA-MB-231),GI50 (LOX IMVI),GI50 (OVCAR-8),GI50 (NCI-H23),GI50 (NCI-H460),GI50 (BT-549),GI50 (RPMI-8226),GI50 (SR),GI50 (SK-OV-3),GI50 (MDA-MB-435),GI50 (EKVX),GI50 (MCF7),GI50 (SNB-19),GI50 (IGROV-1),GI50 (T47D),GI50 (SK-MEL-28)
Cc1cc(NS(=O)(=O)c2ccc(NC(=O)c3ccc4[nH]c5ccccc5c(=O)c4c3)cc2)no1,> 100 µM (inactive),40.9 µM (inactive),> 100 µM (inactive),> 100 µM (inactive),> 100 µM (inactive),46.5 µM (inactive),> 100 µM (inactive),> 100 µM (inactive),> 100 µM (inactive),> 100 µM (inactive),> 100 µM (inactive),> 100 µM (inactive),> 100 µM (inactive),> 100 µM (inactive),> 100 µM (inactive),> 100 µM (inactive),> 100 µM (inactive),> 100 µM (inactive),69.7 µM (inactive),> 100 µM (inactive)
COc1cc2c3c(c1OC)-c1cc4c(cc1CC3(C#N)N(C(=O)c1ccccc1)CC2)OCO4 (stereo not given),9.12 µM (inactive),> 100 µM (inactive),51.2 µM (inactive),> 76.4 µM (inactive),67.6 µM (inactive),> 56.8 µM (inactive),20.7 µM (inactive),25.5 µM (inactive),52.6 µM (inactive),> 100 µM (inactive),> 87.5 µM (inactive),65.9 µM (inactive),25.7 µM (inactive),> 88.5 µM (inactive),45.8 µM (inactive),91.6 µM (inactive),22.2 µM (inactive),33 µM (inactive),> 100 µM (inactive),59.7 µM (inactive)
COc1cc(/C=C/C(=N\NC(=S)NN)c2sc(NNC(C)=O)nc2C)ccc1O,> 100 µM (inactive),> 100 µM (inactive),> 100 µM (inactive),> 100 µM (inactive),> 100 µM (inactive),> 100 µM (inactive),> 100 µM (inactive),> 100 µM (inactive),> 100 µM (inactive),> 100 µM (inactive),> 100 µM (inactive),> 100 µM (inactive),> 100 µM (inactive),> 100 µM (inactive),> 100 µM (inactive),> 100 µM (inactive),> 100 µM (inactive),> 100 µM (inactive),> 100 µM (inactive),> 100 µM (inactive)
Cn1c(-c2cccs2)cc(-c2cccs2)c1-c1cccs1,53.3 µM (inactive),67 µM (inactive),> 96.4 µM (inactive),> 100 µM (inactive),98.9 µM (inactive),35.8 µM (inactive),> 100 µM (inactive),13.6 µM (inactive),78.7 µM (inactive),> 100 µM (inactive),20.4 µM (inactive),13.6 µM (inactive),> 100 µM (inactive),53.2 µM (inactive),39.2 µM (inactive),2.82 µM (inactive),> 100 µM (inactive),51.8 µM (inactive),2.78 µM (inactive),> 100 µM (inactive)
Nc1nc(-c2ccccc2/N=N/N2CCCC2)nc2ccccc12,11.5 µM (inactive),3.07 µM (inactive),1.57 µM (inactive),3.7 µM (inactive),1.58 µM (inactive),1.75 µM (inactive),1.45 µM (inactive),2.2 µM (inactive),2.92 µM (inactive),11.8 µM (inactive),2 µM (inactive),0.413 µM (active),9.1 µM (inactive),2.56 µM (inactive),10.8 µM (inactive),3.48 µM (inactive),3.69 µM (inactive),2.91 µM (inactive),2.4 µM (inactive),12.2 µM (inactive)
CCc1nc(N)nc(N)c1-c1ccc(N2CCNCC2)c([N+](=O)[O-])c1,36.6 µM (inactive),4.74 µM (inactive),78.7 µM (inactive),5.28 µM (inactive),26.5 µM (inactive),3.48 µM (inactive),6.7 µM (inactive),7.85 µM (inactive),2.11 µM (inactive),45.9 µM (inactive),29.5 µM (inactive),4.35 µM (inactive),91.2 µM (inactive),4.27 µM (inactive),23.8 µM (inactive),12.4 µM (inactive),41.5 µM (inactive),7.55 µM (inactive),58.5 µM (inactive),40.5 µM (inactive)
CC1=C(O)C(=O)C=C2C1=CC=C1[C@@]2(C)CC[C@@]2(C)[C@@H]3C[C@](C)(C(=O)O)CC[C@]3(C)CC[C@]12C [CELASTROL],0.132 µM (active),< 0.01 µM (active),0.0308 µM (active),0.0393 µM (active),0.021 µM (active),0.0182 µM (active),0.0226 µM (active),0.0526 µM (active),0.149 µM (active),0.0124 µM (active),< 0.0136 µM (active),< 0.01 µM (active),0.238 µM (active),0.0351 µM (active),0.0471 µM (active),0.0818 µM (active),0.0757 µM (active),0.0178 µM (active),0.0198 µM (active),0.0164 µM (active)
C=C(CCOC)CCC1CCCCC(CN(C)C)C1=O (stereo not given),> 100 µM (inactive),> 100 µM (inactive),> 100 µM (inactive),> 100 µM (inactive),> 100 µM (inactive),> 100 µM (inactive),> 100 µM (inactive),> 100 µM (inactive),> 100 µM (inactive),> 100 µM (inactive),> 100 µM (inactive),> 100 µM (inactive),> 100 µM (inactive),> 100 µM (inactive),> 100 µM (inactive),> 100 µM (inactive),> 100 µM (inactive),> 100 µM (inactive),> 100 µM (inactive),> 100 µM (inactive)
CCCCCCCCCCCCCCCCNc1ccn(C2CC(O)C(COC(c3ccccc3)(c3ccccc3)c3ccc(OC)cc3)O2)c(=O)n1 (stereo not given),> 100 µM (inactive),67.8 µM (inactive),20.9 µM (inactive),> 100 µM (inactive),> 100 µM (inactive),> 100 µM (inactive),> 100 µM (inactive),> 100 µM (inactive),> 100 µM (inactive),> 100 µM (inactive),> 100 µM (inactive),98.4 µM (inactive),> 100 µM (inactive),> 100 µM (inactive),> 100 µM (inactive),> 100 µM (inactive),> 100 µM (inactive),> 100 µM (inactive),> 100 µM (inactive),> 100 µM (inactive)

# Source: ChEMBL document CHEMBL1201862, “PubChem BioAssay data set” (2004)
